The values that follow come from patent US20220264883A1, “IMIDAZOTHIAZOLE COMPOUNDS AND METHODS FOR TREATING PLANT NEMATODE INFECTIONS” (The Governing Council of the University of Toronto, priority 2019, published 2022).

For orientation: LC50 means the concentration lethal to half of the exposed cells or organisms.

Holding throughout (assay type): in vivo
Assay [1] has as its system M. incognita infective juveniles. Description: Meloidogyne incognita dose-response experiments (infective J2 juveniles, FIG. 2). The following applies: for nematicidal activity on M. incognita infective juveniles: 5, 15, 45 micromolar, third day after water rinse. As to the method:
M. incognita (Kofoid & White) Chitwood Race 1 (originally isolated in Maryland) was used for all experiments, and were maintained on pepper (Capsicum annuum L.) cv. PA-136 in a greenhouse as previously described^64. Infective J2 juveniles were collected as described in ref. 65. The microwell dose-response experiments were carried out similarly to previously described protocols^64, 66. In brief, 100 J2 s, in 10 μL of deionized water, were added to the wells of 96-well polystyrene plates, after which 190 μL of deionized water containing dissolved chemical, or DMSO alone, was added to each well. The final concentration of DMSO in each well was 0.5% (v/v), except for the water only control which contained no DMSO and no added chemicals. The final concentrations of the chemicals for each dose-response experiment were 5, 15, and 45 μM. The wells were covered with a plastic adhesive strip, and the lids of the plates were sealed with parafilm. The plates were incubated at 25° C. The fraction of active worms was quantified by counting the number of mobile and immobile worms after 1 and 2 days of incubation, and then dividing the number of mobile worms by the total number of worms in the well. After 2 days of incubation, the chemicals were removed and replaced with deionized water (i.e. the water rinse) and the fraction of active worms was quantified 1 day later. A failure of the worms to recover after rinsing with water is consistent with them having been killed by the chemical treatment. Four technical replicates were performed for each treatment.

The subject of assay [2] is Haemonchus contortus eggs. Description: Haemonchus contortus egg hatching assay. The following applies: for Hatch Rate: 60 μM, 48 hours, ± standard deviation; for reduction of egg hatching relative to the untreated mock control: 60 micromolar, 48-hour treatment. The protocol: Fresh sheep faeces containing eggs of the MHco3(ISE) strain of H. contortus was supplied by Dr. Doug Colwell and Dawn Gray (Lethbridge Research Station, Agriculture and Agri-Food Canada). Experimental infections used to generate this material were carried out using established methods^72, and were approved by the Lethbridge AAFC Animal Care committee and conducted under animal use license ACC1407. Sheep faeces containing H. contortus eggs were stored at 20° C. for no longer than 48 h before harvesting eggs for use. Eggs were isolated from faeces using a standard saturated salt flotation method^61 immediately before each egg hatch assay. Approximately 100 eggs suspended in 100 μl of water were added to each well of a 96-well plate, and the exemplary compounds of the application were tested at 60 μM, 0.6% DMSO (v/v). Egg hatch rates were determined 48 hours after the initial set-up of the assay by the addition of iodine tincture to stop development. Example 13: Arabidopsis thaliana greening experiments

Assay [3] has as its system C. elegans anthelmintic/nematicide-resistant mutants. Briefly: whole plant or invertebrate. The following applies: Caenorhabditis elegans. The protocol:
Forty microliters of an HB101 bacterial suspension in liquid NGM (see above) was added to each well of a 96-well flat-bottom culture plate, after which approximately 25 synchronized L1 worms, in 10 μl of M9 buffer (see ref. 59 for the recipe), were added to each well. The synchronized L1 worms were obtained from an embryo preparation performed the previous day (see ref. 59 for the protocol). For the L1 assays, 0.5 μl of chemical solution (or DMSO alone) was immediately added to the wells using a multichannel pipette, the final DMSO concentration is 1% (v/v). The worms were incubated for 3 days at 20° C. and the number of viable animals was counted. […] Although the counts were performed after 3 days of incubation in the chemical, it was noted that the L1s were dead within 24 hours of the addition of the chemicals. For the L2/L3 assays, the worms were incubated in the absence of chemical for 1 day at 20° C. until they reached the L2/L3 stage, at which point chemical was added as described above. The worms were then allowed to incubate for 2 days at 20° C. and the number of viable animals was counted as described for the L1 assay. For the L4 assays, the worms were incubated for 2 days at 20° C. before the addition of chemicals. The L4-stage worms were then incubated in chemical for an additional day before quantifying the number of viable animals. The adult assays were performed the same way as the L4 assays, however HT115 E. coli carrying the empty dsRNA expressing vector L4440 was used in place of HB101 and the worms were cultured at 25° C. as opposed to 20° C. for the entirety of the experiment. The HT115 suspension was made by concentrating a bacterial culture, with an OD600 of ˜ 0.8, five-fold with liquid NGM containing 1 mM IPTG and 100 μg/ml carbenicillin. The HT115 cells were induced with 1 mM IPTG for one hour before concentrating with NGM.
The dose-response experiments for the anthelmintic/nematicide-resistant mutants were carried out as described for the L1 dose-response assays. One notable exception is the aldicarb-resistant strain PR1152. This strain grows slowly, and so the viability counts were performed 5 days after addition of the chemical, as opposed to 3 days, to allow the DMSO control worms to reach adulthood.
At least three biological replicates were performed for each dose-response assay. For each biological replicate, two technical replicates were performed and the numbers of viable animals for each technical replicate were combined (i.e. ˜50 worms assayed per concentration). The number of viable worms at each concentration was divided by the corresponding DMSO control value to give the “relative viability” for each concentration. The “relative viability” values were then averaged across the biological replicates. LC50 values were calculated using Graphpad Prism. The concentration values were log-transformed and a four-parameter logistic curve was fitted to the dose-response data by non-linear regression, from which the LC50 values were extracted.

The mark [4] stands for this setting: 120 h, read-out: LC50 in strain PR1152.
Where [5] appears, read: read-out: LC50 in strain CB1072.
Setting [6] is: read-out: LC50 in strain CB3474.
The mark [7] stands for this setting: read-out: LC50 in strain CF1038.
[8] abbreviates: read-out: LC50 in strain DA1316.
[9] abbreviates: read-out: LC50 in strain NM1968.
[10] abbreviates: read-out: LC50 in strain RP2674.

SMILES strings stand for the structures. Where two headings read alike, the source gives them in different places.

Take `Clc1ccc(-c2cn3ccsc3n2)cc1` [Ia]: the “nematicidal activity on M. incognita infective juveniles” value in assay [1] is recorded as “demonstrated nematicidal activity at one or more concentrations”. Further, the “inhibitory effects on worm activity compared with tioxazafen” value in assay [1] (each time point, every concentration tested) is reported as “outperformed the commercial nematicide tioxazafen”. Further, in assay [1] (lowest concentration assayed (5 micromolar)), the nematode lethality stood at 100%. In assay [2], the “Hatch Rate” value is recorded as 1.0 ± 1.7%. Also, the “reduction of egg hatching relative to the untreated mock control” value in assay [2] worked out at 99%. Besides, the LC50 came to 3.7 µM in assay [3] (setting [4]); 5.7 µM in assay [3] (setting [5]); 6.4 µM in assay [3] (setting [6]); 5.7 µM in assay [3] (setting [7]); 4.6 µM in assay [3] (setting [8]); 4.4 µM in assay [3] (setting [9]). The LC50 was 4.9 µM in assay [3] (setting [10]) and 6.4 µM in assay [3] (read-out: LC50 in strain VC731).

Consider `Fc1ccc(-c2cn3ccsc3n2)cc1` [Ib], for which the “nematicidal activity on M. incognita infective juveniles” value in assay [1] is given as “demonstrated nematicidal activity at one or more concentrations”. Besides, the “Hatch Rate” value in assay [2] is 0.0 ± 0.0%. The “reduction of egg hatching relative to the untreated mock control” value in assay [2] is “completely inhibited egg hatching”. Further, the median lethal concentration (LC50) was determined as 14.9 µM in assay [3] (setting [4]); 24.3 µM in assay [3] (setting [5]); 17 µM in assay [3] (setting [6]); 16 µM in assay [3] (setting [7]); 14.5 µM in assay [3] (setting [8]); 16 µM in assay [3] (setting [9]). Besides, the values for the 50% lethal concentration (LC50) in assay [3] (read-out: LC50 in strain RB2119), in assay [3] (setting [10]) and in assay [3] (read-out: LC50 in strain VC731) were 27.5 µM, 16.4 µM and 28.5 µM, respectively.
